# Measurements from patent US20090054526A1, “INHIBITORS OF ANOREXIC LIPID HYDROLYSIS FOR THE TREATMENT OF EATING DISORDERS” (priority 2005, published 2009).
# What was measured:
# diet-induced obese rats = conditions: 5 mg/kg OEA i.p. daily, from day 2 and on, refs (9,22); cited from earlier work
# diet-induced obese mice = conditions: 5 mg/kg OEA i.p. daily, from day 2 and on, refs (9,22); cited from earlier work
# dietary obese mice = assay: Sub-chronic food intake, water intake and body weight study in dietary obese mice; type: in vivo; conditions: for cumulative food intake: D-threo-NMAPPD 30 mg/kg, OEA 2 mg/kg, or both mixed, high-fat diet, mean±SEM
# Protocol: Food intake studies are performed with male Sprague-Dawley rats (250-350 g) or male C57BL/6J mice (Charles River, Sulzfeld, Germany). […] These animals are left on the diet for 12 weeks before the experiment is commenced. The animals are group randomized into weight-matched groups of n=4-12 to receive up to four administrations (0.1-10 ml/kg p.o., i.p., s.c., or i.v.) of a test compound (e.g. MAPP or NMAPPD) or vehicle (saline optionally with Tween 80, polyethylene glycol, DMSO, ethanol, Cremophor excipient) with at least seven days interval. All compounds are administered just prior to the beginning of the dark period optionally after a 24 h fasting period. Food intake (digital balance) and water intake (registered gravimetrically or by means of lick counts) and activity (consecutive beam breaks) are monitored for at least 12 hours following the time of injection. After the treatment, the animals are euthanized by use of CO2 followed by decapitation.
# 3C. Furthermore, a study with dietary obese mice was carried out. After 12 weeks on high-fat diet, animals were stratified according to weight. At day −3, animals were randomised in 5 groups (n=9-10 in each group) to participate in one of following drug treatment groups; vehicle (5% Tween 80, 5% polyethylene glycol, 90% saline), OEA 2 mg/kg, OEA 5 mg/kg, D-threo-NMAPPD 30 mg/kg, D-threo-NMAPPD 30 mg/kg+OEA 2 mg/kg (mixed). The animals received one intraperitoneal injection daily (2 ml/kg) of vehicle or drug(s) suspended in vehicle at […]. The experiment was preceded by a 3 day run-in period with mock injections and handling to habituate the animals to the injection paradigm. On day 0 the animals were dosed for the first time. All animals were fed high-fat diet ad lib—also during the treatment period. Body weight, food and water intake was measured every other day for the following 14 days depending on the animal's state.
# ceramidase = assay: Ceramide hydrolysis in rat intestinal homogenate; type: biochemical; conditions: for inhibition of ceramide hydrolysis: pH 7.0, 50 μM 14C-octanoyl-D-sphingosine, 25 μg protein, 20 min, inhibitor concentration not given ('same concentration')
# Protocol: Enzymatic hydrolysis of ceramide is measured in an assay containing 5-500 μg of intestinal protein incubated with 1-5000 μM of ^14C-ceramide [(N-[1-^14C]acyl-D-erythro sphingosine (with the acyl group being from six to twenty carbon atoms) and dilutions thereof with non-radioactive ceramide to obtain a specific activity of 0.1-100,000 dpm/pmol], which is sonicated in buffer or added in 5-50 μl of ethanol, to a total volume of 50-500 μl of 10-100 mM buffer (pH 3-11) initially utilizing 100 mM Tris-HCl (pH 8.0) containing 0-100 mM CHAPS, 0-10 mM DTT, 0-1% Nonidet P-40, 0-5 mg/ml of bovine serum albumin, and 0-500 mM NaCl with or without addition of D-erythro-MAPP (or a related compound; dissolved 1-10 μl ethanol) in a final concentration of 0.0001-1000 μM (1-10 μl ethanol is added to control assays). Incubations are carried out at 37° C. for 0-120 min and samples are withdrawn at 2-3 time points. The reaction in each sample is terminated by addition of 200-1000 μl of methanol:chloroform:heptane (28:25:20 v/v/v) and 50-400 μl of potassium carbonate buffer (pH 10). After mixing, the samples are centrifuged 1-20 min at low speed centrifugation and 50-400 μl of the upper phase is extracted and the radio-labeled product, free fatty acid, in the upper phase is quantified by liquid scintillation counting. From selected samples, another 50-400 μl aliquot of the upper phase as well as 50-400 μl of the lower phase are evaporated to dryness under a stream of nitrogen, re-dissolved in 10-200 μl of chloroform:methanol (19:1 v/v) and applied on thin-layer chromatography plates, eluted in chloroform:methanol:acetic acid (94:1:5 v/v/v) followed by quantification of the distribution of the radiolabeled free fatty acid in the two phases using a Phosphorlmager scanner (STORM; Molecular Dynamics, Sunnyvale, Calif., USA) and ImageQuant software (GE Health Care, Amersham, United Kingdom). The distribution of released fatty acid is used to calculate the total amount of product formed in each sample. […]
# [1] = test system: acylethanolamide hydrolyzing enzyme (FAAH and an enzyme different from FAAH) in rat intestinal homogenate; assay: OEA and anandamide (acylethanolamide) hydrolysis in rat intestinal homogenate; type: biochemical; conditions: for inhibition of OEA hydrolysis: pH 7.0, 50 μM 3H-OEA, 20 min, inhibitor concentration not given ('same concentration')
# Protocol: Enzymatic hydrolysis of OEA is investigated in an assay containing 5-500 μg of intestinal protein incubated with 1-500 μM of ^3H-OEA ([1-^3H-ethanolamine]OEA and dilutions thereof with non-radioactive OEA to obtain a specific activity of 0.1-100,000 dpm/pmol) or ^3H-anandamide ([1−^3H-ethanolamine]anandamide and dilutions thereof with non-radioactive anandamide to obtain a specific activity of 0.1-100,000 dpm/pmol) in a total volume of 100-500 μl of 10-100 mM buffer (pH 3-11), initially utilizing 100 mM Tris-HCl (pH 8.0) containing 0-2 mM EDTA and 0-5 mg/ml of fatty acid-free bovine serum albumin with or without addition of D-erythro-MAPP (or a related compound; dissolved in 1-10 μl ethanol) in a final concentration of 0.0001-1000 μM (1-10 μl ethanol is added to control assays). Incubations are carried out at 37° C. for 0-120 min and samples are withdrawn at 2-3 time points. The reaction in a sample is terminated by addition of 200-1000 μl of chloroform:methanol (1:1 v/v) and cooling on ice, followed by 10 min centrifugation at low speed, where after 50-250 μl of the upper phase is extracted and the radio-labeled product ethanolamine formed is quantified by liquid scintillation counting. […]
# The reaction in a sample is terminated by addition of 400 μl chloroform:methanol (1:1 v/v) and cooling on ice, followed by 10 min centrifugation at low speed, where after 100 μl of the upper phase is extracted and the radio-labeled product ethanolamine formed is quantified by liquid scintillation counting. In another set of experiments the following assay conditions are adjusted—in order to be identical to those of the ceramidase assay (see example 1B)—by using 25 μg of protein from rat intestinal (jejunum) homogenate in a total volume of 100 μl, 50 μM of ^3H-oleoylethanolamide (OEA; 25.000 dpm) or ^3H-anandamide (AEA; 25.000 dpm), 100 mM citrate phosphate (7.0), 8 mM CHAPS. […] Incubation at 37° C. is carried out for 0 and 20 min after establishment of linearity of product formation within this time frame. […]
smiles,measurement,setting,value
"CCCCCCCC/C=C\CCCCCCCC(=O)NCCO [OEA, oleoylethanolamide, reference compound]",body weight change,diet-induced obese rats,reduced body weight change
same,body weight change,diet-induced obese mice,reduced body weight change
same,food intake versus vehicle,"dietary obese mice; OEA 2 mg/kg i.p. daily, day 12",not significantly different
same,food intake versus vehicle,"dietary obese mice; OEA 5 mg/kg i.p. daily, day 5 and 7",significantly reduced food intake
same,cumulative food intake,"dietary obese mice; day 12, daily i.p.",23.3 ± 1.0 g
"CCCCCCCCCCCCCC(=O)N[C@H](C)[C@@H](O)c1ccccc1 [D-erythro-MAPP, (1S,2R) D-erythro-N-myristoyl-2-amino-1-phenyl-propanol]",inhibition of ceramide hydrolysis,ceramidase,approximately 24%
same,inhibition of OEA hydrolysis,[1]; 25 μg protein,11%
same,effect on AEA hydrolysis,"[1]; pH 7.0, 50 μM 3H-anandamide, inhibitor concentration not clearly printed",unaffected
"NC(=O)c1cccc(-c2cccc(OC(=O)NC3CCCCC3)c2)c1 [URB597, cyclohexyl carbamic acid 3′-carbamoyl-biphenyl-3-yl ester, reference compound]",effect on ceramide hydrolysis over pH range,"ceramidase; 10 μM URB597, pH profile (FIG. 3C)",completely unaffected
same,effect on hydrolysis of OEA and AEA over pH range,"[1]; 10 μM URB597, pH 5.5 to pH 10.5 (FIG. 3C)",to varying degrees were inhibited
same,inhibition of acylethanolamide hydrolysis,"[1]; 10 μM inhibitor, pH 7.0, 50 μM substrate, 25 μg protein, 20 min 37° C. (FIG. 2A)",approximately 79%
"CCCCCCCCCCCCCC(=O)N[C@H](CO)[C@H](O)c1ccc([N+](=O)[O-])cc1 [D-threo-NMAPPD, (1R,2R) D-threo-N-myristoyl-2-amino-1-(4′-nitrophenyl)-1,3-propandiol]",inhibition of ceramide hydrolysis,ceramidase,30%
same,inhibition of OEA hydrolysis,[1]; 25 μg protein,30%
same,dose dependence of inhibition of OEA hydrolysis,"[1]; pH 7.0, increasing concentrations (FIG. 2C)",dose-dependent inhibition
same,food intake versus vehicle,"dietary obese mice; D-threo-NMAPPD 30 mg/kg i.p. daily (alone and with OEA 2 mg/kg), from day 1",consistently and significantly reduced
same,water intake versus vehicle,"dietary obese mice; daily i.p., D-threo-NMAPPD 30 mg/kg at day 1 and day 12, or with OEA 2 mg/kg (FIG. 4B)",significant decreased water intake
same,loss of body weight,"dietary obese mice; day 12, daily i.p., D-threo-NMAPPD 30 mg/kg alone or with OEA 2 mg/kg, vehicle 3.7%",8.9%
same,cumulative food intake,"dietary obese mice; day 12, daily i.p.",20.4 ± 1.2 g
